Earlier results, collected in patent US20160199317A1, “ESTRADIOL CONTAINING TRANSDERMAL DRUG DELIVERY SYSTEMS AND COMPOSITIONS” (3M INNOVATIVE PROPERTIES COMPANY, priority 2013, published 2016).

Conditions: background statement

half-life: about one
SMILES: C[C@]12CC[C@@H]3c4ccc(O)cc4CC[C@H]3[C@@H]1CC[C@@H]2O [estradiol, estra-1,3,5(10)-triene-3,17β-diol]
